Values of other authors, collected in patent US11246836B2, “Intramuscular depot of decoquinate compositions and method of prophylaxis and treatment thereof” (BLUELIGHT PHARMATECH CO., LTD., priority 2018, dated 2022).
≈ marks a conversion by molar mass, not a printed value.

Assays:
[1] = tested on: Plasmodium
[2] = tested on: P. yoelii; details: 50 mg/kg in a corn oil emulsion
[3] = tested on: Plasmodium berghei ANKA; details: single dose of 5 mg/kg suspended in soybean oil

minimum inhibitory concentration (MIC) [1]: 5.12 ng/mL (≈ 0.0123 µM)
Compound: CCCCCCCCCCOc1cc2c(=O)c(C(=O)OCC)c[nH]c2cc1OCC [decoquinate, ethyl-6-decyloxy-7-ethoxy-4-hydroxyquinoline-3-carboxylate]
causal prophylaxis of parasitemia [2]: efficacious | appearance of blood stage parasites [3]: prevent the appearance of blood stage Plasmodium berghei ANKA parasites
